Reference: patent US20060079555A1, “Diarylmethylidene piperidine derivatives, preparations thereof and uses thereof” (AstraZeneca AB, priority 2003, published 2006)

These compounds were tested against T1, human δ receptor (Homo sapiens, UniProt P41143) (assay: GTP[γ]35S binding functional assay, human δ receptor). Conditions: Emax in relation to the standard δ agonist SNC80.
T1 construct: expressed in transfected cells
Format: biochemical
Experimental: The agonist activity of the compounds is measured by determining the degree to which the compounds receptor complex activates the binding of GTP to G-proteins to which the receptors are coupled. In the GTP binding assay, GTP[γ]^35S is combined with test compounds and membranes from HEK-293S cells expressing the cloned human opioid receptors or from homogenised rat and mouse brain. Agonists stimulate GTP[γ]^35S binding in these membranes. The EC50 and Emax values of compounds are determined from dose-response curves. Right shifts of the dose response curve by the delta antagonist naltrindole are performed to verify that agonist activity is mediated through delta receptors. The Emax values were determined in relation to the standard δ agonist SNC80, i.e., higher than 100% is a compound that have better efficacy than SNC80.

T1 sequence (P41143 whole entry): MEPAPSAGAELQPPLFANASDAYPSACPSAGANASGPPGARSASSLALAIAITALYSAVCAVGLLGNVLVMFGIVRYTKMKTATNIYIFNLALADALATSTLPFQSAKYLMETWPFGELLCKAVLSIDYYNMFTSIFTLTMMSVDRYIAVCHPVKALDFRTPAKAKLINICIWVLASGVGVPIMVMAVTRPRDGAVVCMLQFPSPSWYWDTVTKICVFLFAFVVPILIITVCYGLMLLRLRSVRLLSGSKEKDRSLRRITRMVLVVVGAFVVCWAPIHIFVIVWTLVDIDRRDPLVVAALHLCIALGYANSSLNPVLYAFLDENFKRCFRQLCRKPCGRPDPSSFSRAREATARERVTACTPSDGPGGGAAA

Q: `CCN(CC)C(=O)c1ccc(C(=C2CCNCC2)c2cccc(C(=O)Nc3ccccc3)c2)cc1` [Compound 1, 4-[[3-(anilinocarbonyl)phenyl](piperidin-4-ylidene)methyl]-N,N-diethylbenzamide] was tested. Which Emax did it give?
A: 69 to 105%

Q: Which Emax does the source give for `CCN(CC)C(=O)c1ccc(C(=C2CCNCC2)c2cccc(C(=O)NCc3ccccc3)c2)cc1` [Compound 2, 4-[{3-[(benzylamino)carbonyl]phenyl}(piperidin-4-ylidene)methyl]-N,N-diethylbenzamide] here?
A: 69 to 105%

Q: For `CCN(CC)C(=O)c1ccc(C(=C2CCNCC2)c2cccc(C(=O)NCCc3ccccc3)c2)cc1` [Compound 3, 4-[(3-{[(2-phenylethyl)amino]carbonyl}phenyl)(piperidin-4-ylidene)methyl]-N,N-diethylbenzamide], which Emax is on record?
A: 69 to 105%

Q: How did the Emax turn out when `CCN(CC)C(=O)c1ccc(C(=C2CCNCC2)c2cccc(C(=O)NC3CCCC3)c2)cc1` [Compound 4, 4-[{3-[(cyclopentlamino)carbonyl]phenyl}(piperidin-4-ylidene)methyl]-N,N-diethylbenzamide] was run?
A: 69 to 105%

Q: `CCN(CC)C(=O)c1ccc(C(=C2CCNCC2)c2cccc(C(=O)NC3CCCCC3)c2)cc1` [Compound 5] was tested. Which Emax did it give?
A: 69 to 105%

Q: How did the Emax turn out when `CCN(CC)C(=O)c1ccc(C(=C2CCNCC2)c2cccc(C(=O)NCC3CCCCC3)c2)cc1` [Compound 6] was run?
A: 69 to 105%

Q: Which Emax does the source give for `CCN(CC)C(=O)c1ccc(C(=C2CCNCC2)c2cccc(C(=O)NCc3ccccc3Cl)c2)cc1` [Compound 7, 4-[(3-{[(2-chlorobenzyl)amino]carbonyl}phenyl)(piperidin-4-ylidene)methyl]-N,N-diethylbenzamide] here?
A: 69 to 105%

Q: How did the Emax turn out when `CCN(CC)C(=O)c1ccc(C(=C2CCNCC2)c2cccc(C(=O)NCc3ccccc3F)c2)cc1` [Compound 8, 4-[(3-{[(2-fluorobenzyl)amino]carbonyl}phenyl)(piperidin-4-ylidene)methyl]-N,N-diethylbenzamide] was run?
A: 69 to 105%

Q: `CCN(CC)C(=O)c1ccc(C(=C2CCNCC2)c2cccc(C(=O)N[C@H](C)c3ccc(C)cc3)c2)cc1` [Compound 9, 4-[[3-({[(1R)1-(4-methylphenyl)ethyl]amino}carbonyl)phenyl](piperidin-4-ylidene)methyl]-N,N-diethylbenzamide] was tested. Which Emax did it give?
A: 69 to 105%

Q: For `CCN(CC)C(=O)c1ccc(C(=C2CCNCC2)c2cccc(C(=O)Nc3nc(C)cs3)c2)cc1` [Compound 10, 4-[(3-{[(4-methyl-1,3-thiazol-2-yl)amino]carbonyl}phenyl)(piperidin-4-ylidene)methyl]-N,N-diethylbenzamide], which Emax is on record?
A: 69 to 105%

Q: `CCN(CC)C(=O)c1ccc(C(=C2CCNCC2)c2cccc(C(=O)Nc3ccc(C)nc3C)c2)cc1` [Compound 11] was tested. Which Emax did it give?
A: 69 to 105%

Q: `CCN(CC)C(=O)c1ccc(C(=C2CCNCC2)c2cccc(C(=O)NCC(C)C)c2)cc1` [Compound 12, 4-[{3-[(isobutylamino)carbonyl]phenyl}(piperidin-4-ylidene)methyl]-N,N-diethylbenzamide] was tested. Which Emax did it give?
A: 69 to 105%

Q: With `CCC(CC)NC(=O)c1cccc(C(=C2CCNCC2)c2ccc(C(=O)N(CC)CC)cc2)c1` [Compound 13, 4-[(3{[(1-ethylpropyl)amino]carbonyl}phenyl)(piperidin-4-ylidene)methyl]-N,N-diethylbenzamide] as the compound, how does the Emax read?
A: 69 to 105%

Q: `CCN(CC)C(=O)c1ccc(C(=C2CCNCC2)c2cccc(C(=O)N(C)CCc3ccccc3)c2)cc1` [Compound 14, 4-[(3-{[methyl(2-phenylethyl)amino]carbonyl}phenyl)(piperidin-4-ylidene)methyl]-N,N-diethylbenzamide] was tested. Which Emax did it give?
A: 69 to 105%

Q: For `CCN(CC)C(=O)c1ccc(C(=C2CCNCC2)c2cccc(C(=O)N3CCCCC3)c2)cc1` [Compound 15], which Emax is on record?
A: 69 to 105%

Q: How did the Emax turn out when `CCN(CC)C(=O)c1ccc(C(=C2CCNCC2)c2cccc(C(=O)N3CCCC3)c2)cc1` [Compound 16, N,N-diethyl-4-{piperidin-4-ylidene[3-(pyrrolidin-1-ylcarbonyl)phenyl]methyl}benzamide] was run?
A: 69 to 105%
